Positions of bridges follow the written chain, without caps; N, C: chain ends. Non-standard residues stand in square brackets, D forms with d. Residues, ends and D or L forms follow the SMILES beside them.
What was measured:
[1] = system: splenocyte recall response to Ova; test: Splenocyte recall cultures from ovalbumin-challenged treated mice; format: in vivo, mouse; set-up: IL-4, Avg. of Group: unit not given here
Description: In another study, BALB/c mice were sensitized with 0.1 mg of ovalbumin (OVA) or PBS (diluent control) intraperitoneally. Eight days following initial sensitization mice were challenged intratracheally with 1% ovalbumin or PBS (diluent control). On days fifteen, eighteen, twenty one, and thirty four, mice were challenged intratracheally with 2% ovalbumin of PBS. […] Thirty minutes following treatment, mice were challenged intratracheally with 2% OVA and sacrificed 3 hours after OVA challenge. […] On day 34 mice were re-challenged intratracheally with either 2% OVA or PBS. Mice were sacrificed 3 hours after challenge. Following sacrifice on day 21 or 34, lungs were collected for histopathology and for isolation of cells for total cell counts and identification by FACS analysis. Serum was collected for IgE and IL-4 levels. Spleens were collected for cytokine and antibody recall responses.

HIV (IIIb) = test: HIV infectivity of Jurkat T-cells, p24gag immunofluorescence; format: cell-based; details: 100 μM peptide (SDF1α 100 ng/ml), about 48 hours after infection
Description: (a) HIV (IIIb) replication in cultures of Jurkat T-cells was estimated by measuring the supernatant reverse transcriptase activity two weeks after infection. Peptide 2 and peptide 3 were at 100 μM final concentration and SDF-1α was added at 100 ng/ml final concentration 1 hour prior to exposure to virus. Values are mean±SEM from 12 wells, expressed as the percentage of the reverse transcriptase activity in the supernatant from the control wells. The experiment shown is typical of six separate experiments. (b) HIV (IIIb) infectivity of Jurkat T-cells was estimated by staining cells treated identically to those in (a) for p24^gag expression. Values are mean±S.D. percentage of cells stained for p24gag averaged from 12 fields of view from each of two separate wells. (c) HIV (MN) infectivity of THP-1 cells measured as in (b). […] Both fields of view contain 40-50 cells (assessed by Hoeschst 33345 staining viewed under UV illumination conditions).
Jurkat cells following HIV infection were attached to 8-well chamber slides (Becton-Dickinson) by spinning the slides using a plate rotor in a Labofuge centrifuge (Haeraeus) at 3,000×g for 5 minutes. […] A threshold was then applied to each image which was the lowest threshold that detected <1% of the pixels of an image of uninfected cells stained under identical conditions. The number of objects exceeding this threshold in each field of view were counted. […]

Compound | IL-4, Avg. of Group ([1]; Group 5: Ova days 8, 15, 18, 21, peptide BID 14 days, sacrifice day 34 (No recent Ova challenge), 0 μg/ml Ova) | Total IgE (1 week splenocyte cultures) ([1]; Group 5, 5 μg/ml Ova) [ng/mL] | Total IgE (1 week splenocyte cultures), Avg. ([1]; Group 5, 5 μg/ml Ova) | inhibition of viral infectivity, p24gag staining, Jurkat T-cells (HIV (IIIb))
CC[C@@H](C)[C@H]1NC(=O)[C@@H](CCC(N)=O)NC(=O)[C@H](N)CSSC[C@H](C(N)=O)NC(=O)[C@@H](CC(C)C)NC(=O)[C@@H](CC(=O)O)NC(=O)[C@H]2CCCN2C(=O)[C@@H](CCCCN)NC(=O)[C@@H](CCC(N)=O)NC(=O)[C@@H](CCCCN)NC(=O)[C@@H](Cc2c[nH]c3ccccc23)NC1=O (H-[dC][dQ][dI][dW][dK][dQ][dK][dP][dD][dL][dC]-NH2; disulfide 1-11; N-terminus assumed) | 8.05 | 0.082 | 0.021 | 
EICADPKQKWVQ [peptide 3(1-12)[MCP-1]] |  |  |  | ineffective
